Test system: metabotropic glutamate receptors
Assay: displacement of 1S,3R-ACPD-sensitive [3H]glutamate binding to rat brain cell membranes (crude membranes of rat forebrain)
Experimental: The binding of [^3H]glutamate was conducted with crude membranes of rat forebrain as described by Schoepp and True, Neuroscience Lett., 145, 100-104 (1992) and Wright et al., J. Neurochemistry 63, 938-945, 1994.

Row | SMILES | affinity for metabotropic glutamate receptors (result in words) | IC50
1 | N[C@]1(C(=O)O)C[C@@H](SCc2ccco2)[C@@H]2[C@@H](C(=O)O)[C@@H]21 (racemic) [Example 8, 1SR,2RS,4RS,5SR,6SR-2-Amino-4-((2-furanylmethyl)thio)bicyclo[3.1.0]hexane-2,6-dicarboxylic acid] | essentially inactive | 
2 | NC1(C(=O)O)CC(Sc2ccccc2)C2C(C(=O)O)C21 (stereo not drawn) [Example 1, 1SR,2RS,4SR,5SR,6SR-2-Amino-4-(phenylthio)-bicyclo[3.1.0]hexane-2,6-dicarboxylic acid] |  | 242 nM

From patent EP0774454A1, “Excitatory amino acid receptor antagonists” (ELI LILLY AND COMPANY, priority 1995, dated 1997)
